Reference: US9290476B2, “Methylene linked quinolinyl modulators of RORγt” (Janssen Pharmaceutica NV, priority 2012, dated 2016)
Structures can show the parent of a compound that is named as a salt.

How the values were obtained:
human RORγt LBD = human RORγt LBD (Homo sapiens (Human), UniProt P51449); assay: RORγt reporter assay (GAL4-RORγt LBD luciferase in HEK293T cells); format: cell-based; conditions: for IC50: 24 hours compound treatment; for inhibition at 6 µM: HEK-293T, read-out: RORγt reporter Assay, % inhibition @ 6 μM, HEK293T cells, 6 μM
Text: A reporter assay was used to test functional activity of RORγt modulatory compounds on transcriptional activation driven by the RORγt LBD. Cells used in the assay were co-transfected with two constructs. The first construct, pBIND-RORγt LBD, contained the wild type human RORγt LBD fused to the DNA binding domain of the GAL4 protein. The second construct, pGL4.31 (Promega Cat no. C935A), contained multiple GAL4 responsive DNA elements upstream of firefly luciferase. […] The mutant construct was called pBIND-RORγt-AF2.
The pBIND vector contains the GAL4 DNA Binding Domain (GAL4 DBD) and the renilla luciferase gene under control of the SV40 promoter. Renilla luciferase expression serves as a control for transfection efficiency and cell viability.
The reporter assay was performed by transiently transfecting HEK293T cells with 5 ng of pBIND-RORγt LBD or pBIND-RORγt LBD-AF2 and 5 μg pGL4.31 (Promega Cat no. C935A) using Fugene 6 ([…] Cat no. E2691) at a 1:6 ratio of DNA: Fugene 6 in a T-75 flask in which cells were at least 80% confluent. Twenty four hours after bulk transfection, cells were plated into 96-well plates at 50,000 cells/well in phenol-red free DMEM containing 5% Lipid Reduced FCS and Pen/Strep. Six hours after plating, cells were treated with compounds for 24 hours. Media was removed and cells were lysed with 50 μL 1× Glo Lysis Buffer (Promega). Dual Glo Luciferase Reagent (50 μL/well) was then added and firefly luciferase luminescence was read on an Envision after a ten minute incubation. Finally, Stop and Glo reagent (50 μL/well) was added and renilla luciferase luminescence was read on an Envision after a ten minute incubation. To calculate the effect of compounds on RORγt activity, the ratio of firefly to renilla luciferase was determined and plotted against compound concentration. Agonist compounds increase RORγt-driven luciferase expression, and antagonist or inverse agonist compounds decrease luciferase expression.

[1] = target: human RORγt ligand binding domain (RORγt LBD) (Homo sapiens (Human), UniProt P51449); assay: RORγt ThermoFluor assay (thermal shift binding affinity); conditions: estimated from thermal shift
Description: This approach is applicable to a wide variety of systems, and rigorous in theoretical interpretation through quantitation of equilibrium binding constants (KD).
The shift in the melting point described as a ΔTm is proportional to the concentration and affinity of the ligand.
RORγt ThermoFluor® Assay Construct
Protein and compound solutions are dispensed into black 384-well polypropylene PCR microplates (Abgene) and overlayed with silicone oil (1 μL, Fluka, type DC 200) to prevent evaporation.
Bar-coded assay plates are robotically loaded onto a thermostatically controlled PCR-type thermal block and then heated at a typical ramp-rate of 1° C./min for all experiments. Fluorescence was measured by continuous illumination with UV light (Hamamatsu LC6) supplied via fiber optic and filtered through a band-pass filter (380-400 nm; >6 OD cutoff). Fluorescence emission of the entire 384-well plate was detected by measuring light intensity using a CCD camera (Sensys, Roper Scientific) filtered to detect 500±25 nm, resulting in simultaneous and independent readings of all 384 wells. Images were collected at each temperature, and the sum of the pixel intensity in a given area of the assay plate was recorded versus temperature. Reference wells contained RORγt without compounds, and the assay conditions were as follows: • 0.065 mg/mL RORγt • 60 μM 1,8-ANS • 100 mM Hepes, pH 7.0 • 10 mM NaCl • 2.5 mM GSH • 0.002% Tween-20
Project compounds were arranged in a pre-dosed mother plate (Greiner Bio-one) wherein compounds are serially diluted in 100% DMSO by 1:2 from a high concentration of 10 mM over 12 columns within a series (column 12 is a reference well containing DMSO, no compound). The compounds were robotically dispensed directly into assay plates (1×=46 nL) using a Hummingbird capillary liquid handling instrument (Digilab). Following compound dispense, protein and dye in buffer was added to achieve the final assay volume of 3 μL, followed by 1 μL of silicone oil.

Chain of human RORγt ligand binding domain (RORγt LBD) (P51449 other isoform, or with tags, fused parts or gaps): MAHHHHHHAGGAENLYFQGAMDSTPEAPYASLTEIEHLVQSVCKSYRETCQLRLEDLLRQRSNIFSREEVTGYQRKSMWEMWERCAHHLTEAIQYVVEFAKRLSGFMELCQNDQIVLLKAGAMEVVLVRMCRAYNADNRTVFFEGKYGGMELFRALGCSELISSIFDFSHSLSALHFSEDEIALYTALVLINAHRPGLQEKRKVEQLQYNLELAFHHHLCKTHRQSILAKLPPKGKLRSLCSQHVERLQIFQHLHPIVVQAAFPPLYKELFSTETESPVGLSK
Chain of human RORγt LBD (P51449 258-518): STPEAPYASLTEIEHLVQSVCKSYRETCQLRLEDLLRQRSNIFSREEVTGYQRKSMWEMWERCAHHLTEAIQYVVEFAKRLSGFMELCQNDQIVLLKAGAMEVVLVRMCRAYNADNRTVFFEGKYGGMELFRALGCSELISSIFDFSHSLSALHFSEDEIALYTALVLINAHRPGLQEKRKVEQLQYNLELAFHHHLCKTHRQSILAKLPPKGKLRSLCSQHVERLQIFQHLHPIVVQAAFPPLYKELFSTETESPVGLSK

| Compound | IC50 (human RORγt LBD; HEK293T cells) [µM] | inhibition at 6 µM (human RORγt LBD) [%] | Kd [1] [µM] | RORγt reporter Assay, % inhibition @ 6 μM (human RORγt LBD; HEK293T cells, 6 μM) [%] |
| --- | --- | --- | --- | --- |
| Cc1ccc(C(O)(c2ccc3nc(C#N)c(Cc4ccc(C(F)(F)F)cc4)c(C#N)c3c2)c2cnnn2C)c(C)n1 (single isomer, unassigned) [Example 88B, 6-((2,6-Dimethylpyridin-3-yl)(hydroxy)(1-methyl-1H-1,2,3-triazol-5-yl)methyl)-3-(4-(trifluoromethyl)benzyl)quinoline-2,4-dicarbonitrile] | 0.14 | 96 | 0.029 | – |
| CCOc1nc2ccc(C(O)(c3cncs3)c3cncn3C)cc2cc1Cc1ccc(OC)cc1 (stereo not drawn) [Example 24, (2-Ethoxy-3-(4-methoxybenzyl)quinolin-6-yl)(1-methyl-1H-imidazol-5-yl)(thiazol-5-yl)methanol.TFA] | > 6 | 35 | 0.75 | – |
| COc1ccc(Cc2cc3cc(C(O)(c4cncs4)c4cncn4C)ccc3nc2Cl)cc1 (stereo not drawn) [Example 52, (2-chloro-3-(4-methoxybenzyl)quinolin-6-yl)(1-methyl-1H-imidazol-5-yl)(thiazol-5-yl)methanol.TFA] | > 6 | 34 | – | – |
| COc1nc2ccc(C(O)(c3ccc(C)nc3C)c3cnnn3C)cc2c(C#N)c1Cc1ccc(C(F)(F)F)cc1 (single isomer, unassigned) [Example 78B, 6-((2,6-Dimethylpyridin-3-yl)(hydroxy)(1-methyl-1H-1,2,3-triazol-5-yl)methyl)-2-methoxy-3-(4-(trifluoromethyl)benzyl)quinoline-4-carbonitrile] | – | 94 | – | – |
| OC(c1cccnc1)(c1cccc(Cl)c1)c1ccc2nc(Cl)c(Cc3ccc(F)cc3)c(Cl)c2c1 (stereo not drawn) [Example 3, (3-Chlorophenyl)-(2,4-dichloro-3-(4-fluorobenzyl)quinolin-6-yl)-(pyridin-3-yl)methanol.TFA] | > 6 | 30 | – | – |
| OC(c1cccnc1)(c1cccc(Cl)c1)c1ccc2nc(Cl)c(Cc3ccc(Cl)cc3)c(Cl)c2c1 (stereo not drawn) [Example 2, (3-Chlorophenyl)-(2,4-dichloro-3-(4-chlorobenzyl)quinolin-6-yl)-(pyridin-3-yl)methanol.TFA] | 0.05 | 70 | – | – |
| CCc1nc2ccc(C(O)(c3cnnn3C)C3CN(S(C)(=O)=O)C3)cc2c(Cl)c1Cc1ccc(C(F)(F)F)cc1 (stereo not drawn) [Example 91A, (4-Chloro-2-ethyl-3-(4-(trifluoromethyl)benzyl)quinolin-6-yl)(1-methyl-1H-1,2,3-triazol-5-yl)(1-(methylsulfonyl)azetidin-3-yl)methanol] | – | 100 | – | – |
| COc1nc2ccc(C(O)(c3ccc(C)nc3C)c3cnnn3C)cc2c(C#N)c1Cc1ccc(C(F)(F)F)cc1 (stereo not drawn) [Example 78A, 6-((2,6-Dimethylpyridin-3-yl)(hydroxy)(1-methyl-1H-1,2,3-triazol-5-yl)methyl)-2-methoxy-3-(4-(trifluoromethyl)benzyl)quinoline-4-carbonitrile] | – | 97 | – | – |
| COc1nc2ccc(C(O)(c3ccc(C)nc3C)c3cnnn3C)cc2c(Cl)c1Cc1ccc(C(F)(F)F)cc1 (stereo not drawn) [Example 77A, (4-Chloro-2-methoxy-3-(4-(trifluoromethyl)benzyl)quinolin-6-yl)(2,6-dimethylpyridin-3-yl)(1-methyl-1H-1,2,3-triazol-5-yl)methanol] | – | 103 | – | – |
| COc1nc2ccc(C(O)(c3cnnn3C)c3cnc(C)n3C)cc2c(Cl)c1Cc1ccc(C(F)(F)F)cc1 (stereo not drawn) [Example 80A, (4-Chloro-2-methoxy-3-(4-(trifluoromethyl)benzyl)quinolin-6-yl)(1,2-dimethyl-1H-imidazol-5-yl)(1-methyl-1H-1,2,3-triazol-5-yl)methanol] | – | 103 | – | – |

The remaining lines, values ahead:

| IC50 (human RORγt LBD; HEK293T cells) [µM] | inhibition at 6 µM (human RORγt LBD) [%] | Kd [1] [µM] | RORγt reporter Assay, % inhibition @ 6 μM (human RORγt LBD; HEK293T cells, 6 μM) [%] | Compound |
| --- | --- | --- | --- | --- |
| 0.11 | 97 | – | – | Cn1cncc1C(O)(c1ccc(Cl)cc1)c1ccc2nc(C#N)c(Cc3ccc(-n4cccn4)cc3)c(C#N)c2c1 (stereo not drawn) [Example 71A, 3-(4-(1H-Pyrazol-1-yl)benzyl)-6-((4-chlorophenyl)(hydroxy)(1-methyl-1H-imidazol-5-yl)methyl)quinoline-2,4-dicarbonitrile] |
| 0.18 | 96 | 0.36 | – | COc1nc2ccc(C(O)(c3ccc(N(C)C)cc3)c3cccnc3)cc2c(Cl)c1Cc1ccc(-n2cccn2)cc1 (stereo not drawn) [Example 42, (3-(4-(1H-Pyrazol-1-yl)benzyl)-4-chloro-2-methoxyquinolin-6-yl)(4-(dimethylamino)phenyl)(pyridin-3-yl)methanol] |
| 0.069 | 98 | 0.012 | – | COc1nc2ccc(C(O)(c3ccc(C(F)(F)F)nc3)c3cncn3C)cc2c(Cl)c1Cc1ccc(C(F)(F)F)nc1 (stereo not drawn) [Example 94A, (4-Chloro-2-methoxy-3-((6-(trifluoromethyl)pyridin-3-yl)methyl)quinolin-6-yl)(1-methyl-1H-imidazol-5-yl)(6-(trifluoromethyl)pyridin-3-yl)methanol] |
| 0.74 | – | 0.4 | 62 | COc1nc2ccc(C(O)(c3ccc(Cl)cc3)c3cncn3C)cc2c(Cl)c1Cc1cc2ccccc2s1 (single isomer, unassigned) [Example 36B, (3-(benzo[b]thiophen-2-ylmethyl)-4-chloro-2-methoxyquinolin-6-yl)(4-chlorophenyl)(1-methyl-1H-imidazol-5-yl)methanol] |
| 0.012 | 102 | 0.00029 | – | COc1nc2c(C)cc(C(O)(c3cncn3C)c3cncn3C)cc2c(Cl)c1Cc1ccc(-n2cccn2)cc1 [Example 56, (3-(4-(1H-Pyrazol-1-yl)benzyl)-4-chloro-2-methoxy-8-methylquinolin-6-yl)bis(1-methyl-1H-imidazol-5-yl)methanol] |
| > 6 | 71 | 0.32 | – | Cc1nc2ccc(C(O)(c3ccc(Cl)cc3)c3cncn3C)cc2c(C)c1Cc1ccccc1 (stereo not drawn) [Example 50, (3-Benzyl-2,4-dimethylquinolin-6-yl)(4-chlorophenyl)(1-methyl-1H-imidazol-5-yl)methanol.TFA] |
| – | 99 | – | – | COc1nc2ccc(C(O)(c3ccc(Cl)cc3)c3cncn3C)cc2c(Cl)c1Cc1ccc(-n2cncn2)cc1 (stereo not drawn) [Example 64A, (3-(4-(1H-1,2,4-Triazol-1-yl)benzyl)-4-chloro-2-methoxyquinolin-6-yl)(4-chlorophenyl)(1-methyl-1H-imidazol-5-yl)methanol] |
| – | 103 | – | – | COc1ccc(C(O)(c2ccc3nc(Cl)c(Cc4ccc(-n5cccn5)cc4)c(Cl)c3c2)c2cncn2C)cn1 (stereo not drawn) [Example 21, (3-(4-(1H-Pyrazol-1-yl)benzyl)-2,4-dichloroquinolin-6-yl)(6-methoxypyridin-3-yl)(1-methyl-1H-imidazol-5-yl)methanol.TFA] |
| – | 101 | – | – | COc1nc2ccc(C(O)(c3ccc(Cl)cc3)c3cncn3C)cc2c(Cl)c1Cc1ccc(-n2cncn2)cc1 (single isomer, unassigned) [Example 64B, (3-(4-(1H-1,2,4-triazol-1-yl)benzyl)-4-chloro-2-methoxyquinolin-6-yl)(4-chlorophenyl)(1-methyl-1H-imidazol-5-yl)methanol] |
| 0.046 | 101 | – | – | COc1nc2ccc(C(O)(c3ccc(C(F)(F)F)nc3)c3cncn3C)cc2c(Cl)c1Cc1ccc(S(C)(=O)=O)cc1 (stereo not drawn) [Example 53, (4-Chloro-2-methoxy-3-(4-(methylsulfonyl)benzyl)quinolin-6-yl)(1-methyl-1H-imidazol-5-yl)(6-(trifluoromethyl)pyridin-3-yl)methanol] |
